Experimental findings from ChEMBL document CHEMBL1201862, “PubChem BioAssay data set” (2004) are described below.

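Exposure lasted 48 hours, with cells grown in 96-well plates and compounds tested at five concentrations. Abbreviation: GI50, concentration required for 50% inhibition of growth.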 Calls of active or inactive are those of the source. Cut-off read from the data, not from the text of the source: active = GI50 up to about 1.1 µM and inactive = higher.

Common to all, as to experiment: DTP human tumour cell line panel, 48 h
Experiment [1] relates to SNB-78.
The subject of experiment [2] is LXFL 529.
Experiment [3] has as its system XF498.
The subject of experiment [4] is RXF 631.
Experiment [5] concerns DMS-273.
For experiment [6], the system named is BT-549.
The subject of experiment [7] is MDA-MB-435.
Experiment [8] has as its system MDA-N.
Experiment [9] concerns T47D.

For the molecule `Cc1ccc([N+](=O)[O-])cc1NC(=O)C(=O)C(C(=O)c1ccccc1F)C1OC(=O)c2ccccc21` (configuration not stated), the GI50 (usually the concentration that inhibits growth by half) is > 100 µM (inactive) in experiment [1]; 34 µM (inactive) in experiment [2]; 81.5 µM (inactive) in experiment [3]; 32.7 µM (inactive) in [4]; 36.3 µM (inactive) in experiment [5].
As to `CC(=O)OCC1OC(n2c(-c3ccc(Cl)cc3)cc(-c3ccccc3)c(C#N)c2=S)C(OC(C)=O)C(OC(C)=O)C1OC(C)=O` (configuration not stated), the GI50 in experiment [6] is 5.01 µM (inactive); in [7], 12.7 µM (inactive); in experiment [8], 11.3 µM (inactive); in [9], 18.7 µM (inactive).
As to `N#CC1(C#N)C2C=CC(C3CCC=C32)C1(C#N)C#N` (configuration not stated), the GI50 in experiment [6] is > 10 µM (inactive); in [7] it was > 10 µM (inactive); in experiment [8] it was > 10 µM (inactive); in experiment [9], > 5.33 µM (inactive).
Take `O=c1c(-c2ccccc2)c(SCCCN2CCCCC2)n(-c2ccccc2)c(=S)n1-c1ccccc1`: the GI50 in experiment [6] is 18 µM (inactive); in experiment [7], 17.7 µM (inactive).
With `O=C(O)C(CCc1ccccc1)N1C(=O)c2ccccc2C1=O` (configuration not stated), the GI50 in [6], in [7], in experiment [8] and in experiment [9] was > 100 µM (inactive) in each case.
As for `COc1ccc(C2COc3cc(O)c(O)cc3C2)cc1` (configuration not stated), the GI50 in experiment [1] is 38.3 µM (inactive); in [3], 7.28 µM (inactive); in [5], 33.3 µM (inactive).
For the molecule `CCOc1cc(/C=N\O)cc(/C=N/O)c1O`, the GI50 was 32.3 µM (inactive) in experiment [7], 35.6 µM (inactive) in [8] and 21.9 µM (inactive) in experiment [9].
For `COC1OC(=O)[C@H]2O[N+]([O-])=C(C)[C@@H]12` (some centres not stated), the GI50 in experiment [1] and in experiment [3] was > 100 µM (inactive) in each case.
For the molecule `CC1(C)COC2C(N(Cc3ccccc3)Cc3ccccc3)C(=O)N21` (configuration not stated), the GI50 in experiment [1] was 42.6 µM (inactive); in experiment [2] it was 51.3 µM (inactive).
As to `COc1ccc(NCC(=O)Nn2c(-c3ccccc3)nc3ccccc3c2=O)cc1`, the GI50 in [6] was 23.3 µM (inactive); in [7], 51.8 µM (inactive); in experiment [8], 63.4 µM (inactive); in [9], 29.9 µM (inactive).
On to `c1ccc(CSC(SCc2ccccc2)c2cccc3ccccc23)cc1`, for which the GI50 was > 10 µM (inactive) in experiment [7], > 10 µM (inactive) in experiment [8] and 9.73 µM (inactive) in experiment [9].
Consider `Cc1cc(N(CCC#N)S(=O)(=O)c2ccccc2)ccc1/C=N\c1cccc(C(=O)O)c1`, for which the GI50 in experiment [1], in [2] and in experiment [4] was > 100 µM (inactive) throughout.
With `O=c1c2c3c(sc2nc(CN2CCNCC2)n1-c1ccccc1)CCCC3`, the values for the GI50 in [6], in experiment [8] and in experiment [9] were > 100 µM (inactive), 89.1 µM (inactive) and 99.5 µM (inactive), respectively.
On to `Cc1cn(Cc2cnnn2CC2OC(n3cc(C)c(=O)[nH]c3=O)CC2O)c(=O)[nH]c1=O` (configuration not stated), for which the GI50 in experiment [6], in experiment [7], in experiment [8] and in experiment [9] was > 100 µM (inactive) in each case.
For the molecule `CCCCc1c2c(nc3c1CCc1cc4cc5c(nc4nc1-3)-c1nc3c(c(CCCC)c1CC5)CCC/C3=C\c1ccccc1)/C(=C/c1ccccc1)CCC2`, the GI50 in [1], in [2] and in experiment [5] was > 100 µM (inactive) in each case.
`CC1(C)OP(=O)(O)CC1=O`: the GI50 in [7], in [8] and in [9] was > 100 µM (inactive) throughout.
For the molecule `CCOC(=O)CSc1c(C(=O)OCC)c(=O)n(-c2ccccc2)c(=S)n1-c1ccccc1`, the GI50 in [6] is 8.49 µM (inactive); in [7], 41.6 µM (inactive); in experiment [8] it was > 100 µM (inactive); in [9], > 100 µM (inactive).
`N#CC1(CCCI)CCCC1`: the GI50 was 20.1 µM (inactive) in [1]; 23.2 µM (inactive) in [2]; 18.6 µM (inactive) in experiment [3]; 1.34 µM (inactive) in [4]; 4.55 µM (inactive) in experiment [5].
On to `COc1nc2[nH]ccc2c(=O)[nH]1`, for which the GI50 in experiment [1], in experiment [2] and in [4] was > 100 µM (inactive) each time.
Take `CCOC(=O)Nc1ccc(S(=O)(=O)NCCCl)cc1.CCOC(=O)Nc1ccc(S(=O)(=O)NCCCl)cc1.O=C(O)c1ccc(/N=N/Cl)cc1O`: the GI50 in experiment [1], in [2], in [4] and in experiment [5] was > 100 µM (inactive) throughout.
For `CN1C(=O)CN=C(c2ccccc2F)c2cc(N=C=S)ccc21`, the GI50 was 58.5 µM (inactive) in experiment [6], 35.9 µM (inactive) in [7], 54.3 µM (inactive) in experiment [8] and 56.8 µM (inactive) in experiment [9].
Turning to `NC1CCCCC1.O=P(O)(O)C(CSc1ccccc1)P(=O)(O)O`, the GI50 in experiment [1], in [3] and in experiment [5] was > 100 µM (inactive) throughout.
As to `FC(F)(F)C(C1=NC(C(F)(F)F)(C(F)(F)F)N=C(N2CCOCC2)O1)C(F)(F)F`, the GI50 was 17.9 µM (inactive) in experiment [6], 15.3 µM (inactive) in [7], 19.1 µM (inactive) in experiment [8] and 23.4 µM (inactive) in experiment [9].
`CN(C)c1n/c(=N/c2ccc(/N=c3\nc(N(C)C)ss3)cc2)ss1`: the GI50 in experiment [1] was 17.6 µM (inactive); in experiment [2], > 33.5 µM (inactive); in experiment [4], 22 µM (inactive); in experiment [5], 28.8 µM (inactive).
For the molecule `Cc1c2ccncc2cc2c1[nH]c1ccccc12`, the GI50 in [1] was 13 µM (inactive); in experiment [3], 1.12 µM (active); in experiment [5] it was 1.19 µM (inactive).
As to `COc1cc(C(=O)C/C(CCC(=O)Nc2ccc(Cl)cc2Cl)=N/NC(=O)C(=O)NN)ccc1O`, the GI50 in experiment [2], in experiment [3] and in experiment [4] was > 100 µM (inactive) each time.
In the case of `CCN(CC)CCCC(C)Nc1cc(-c2ccccc2)nc2cc(OC)ccc12` (configuration not stated), the GI50 in experiment [1] was 3.21 µM (inactive); in experiment [2], 6.28 µM (inactive).
As for `COC1/C=C/C(C)C(C(C)C(OC)C(C)CCC(=O)C(C)C(C/C=C/N(C)C=O)OC)OC(=O)/C=C/C=C(\C)CC(OC)CC2=CC(=O)O[C@H](C2)C(C)C(OC)CC(OC)/C=C/C(C)C(OC)C1` (some centres not stated), the GI50 is 0.0108 µM (active) in [6] and 0.0286 µM (active) in [7].
On to `N#Cc1c(-c2ccccc2)cn(C(=O)c2ccccc2)c1N`, for which the GI50 in [7] and in experiment [8] was > 100 µM (inactive) each time.
As for `OCC1OC(n2ccc3cnccc32)CC1O` (configuration not stated), the GI50 in [1], in [2] and in experiment [5] was > 100 µM (inactive) each time.
On to `CCC(C)(C)n1c(C)nc2c1C(=O)c1ccccc1C2=O`, for which the GI50 in experiment [1] was 46.5 µM (inactive); in experiment [2], 13.9 µM (inactive); in experiment [3] it was 16.8 µM (inactive); in experiment [5], 11.8 µM (inactive).
